The structures appear in SMILES notation. Read-outs that look alike come from different tables or passages of the source. Some results are limits rather than exact numbers.

What is called IC50 is the concentration needed to halve the response being measured.

Type in all cases: cell-based
For one test, the target named is T1, human TLR9 (Homo sapiens, UniProt Q9NR96).
T1 construct: host or cells: HEK-Blue cells (HEK293-derived reporter line)
T1 sequence (Q9NR96 26-1032): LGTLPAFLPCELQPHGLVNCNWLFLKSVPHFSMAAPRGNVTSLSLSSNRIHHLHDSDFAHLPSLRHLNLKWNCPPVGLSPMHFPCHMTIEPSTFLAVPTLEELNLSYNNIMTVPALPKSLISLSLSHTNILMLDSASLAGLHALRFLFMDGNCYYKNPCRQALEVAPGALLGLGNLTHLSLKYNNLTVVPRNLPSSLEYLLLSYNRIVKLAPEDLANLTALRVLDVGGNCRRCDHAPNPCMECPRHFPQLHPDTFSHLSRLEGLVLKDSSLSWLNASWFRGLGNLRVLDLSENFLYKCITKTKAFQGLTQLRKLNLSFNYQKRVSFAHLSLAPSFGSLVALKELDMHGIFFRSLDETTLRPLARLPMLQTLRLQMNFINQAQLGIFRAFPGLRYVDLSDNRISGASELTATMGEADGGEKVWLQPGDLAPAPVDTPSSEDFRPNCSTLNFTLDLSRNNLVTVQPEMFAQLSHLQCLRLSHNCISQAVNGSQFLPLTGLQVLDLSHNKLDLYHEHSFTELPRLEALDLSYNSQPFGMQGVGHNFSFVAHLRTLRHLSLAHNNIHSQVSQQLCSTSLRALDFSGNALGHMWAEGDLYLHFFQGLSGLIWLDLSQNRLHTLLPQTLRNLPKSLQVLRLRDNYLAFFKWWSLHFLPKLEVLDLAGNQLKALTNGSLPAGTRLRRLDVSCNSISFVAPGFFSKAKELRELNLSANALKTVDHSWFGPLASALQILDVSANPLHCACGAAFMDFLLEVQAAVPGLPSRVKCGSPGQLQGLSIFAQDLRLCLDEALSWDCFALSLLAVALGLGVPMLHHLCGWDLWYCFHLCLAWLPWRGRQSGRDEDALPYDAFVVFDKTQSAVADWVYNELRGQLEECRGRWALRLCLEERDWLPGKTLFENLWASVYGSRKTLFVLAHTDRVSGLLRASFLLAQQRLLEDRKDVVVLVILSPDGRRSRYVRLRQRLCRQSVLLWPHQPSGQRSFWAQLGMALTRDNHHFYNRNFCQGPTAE
Nature of the test: TLR9 inhibition reporter assay (HEK-Blue cells, secreted embryonic alkaline phosphatase reporter). To be noted: HEK-Blue cells overexpressing human TLR9, stimulated with ODN2006 5 nM. The essentials: (§1)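 HEK-Blue cells expressing human TLR7, TLR8 or TLR9 with an NF-κB/AP-1-driven SEAP reporter were pretreated with compound (0.05 nM–50 μM final) for 30 min at room temperature. Agonists were gardiquimod 7.5 μM for TLR7, R848 15.9 μM for TLR8 and ODN2006 5 nM for TLR9. SEAP was read after 22 h at 37 °C, and inhibition was calculated relative to agonist-plus-DMSO and known-inhibitor controls.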
For orientation: A reporter such as luciferase makes a cellular process visible.

The target of another test is T2, human TLR7 (Homo sapiens, UniProt Q9NYK1).
T2 construct: host or cells: HEK-Blue cells (HEK293-derived reporter line)
T2 sequence (Q9NYK1 27-1049): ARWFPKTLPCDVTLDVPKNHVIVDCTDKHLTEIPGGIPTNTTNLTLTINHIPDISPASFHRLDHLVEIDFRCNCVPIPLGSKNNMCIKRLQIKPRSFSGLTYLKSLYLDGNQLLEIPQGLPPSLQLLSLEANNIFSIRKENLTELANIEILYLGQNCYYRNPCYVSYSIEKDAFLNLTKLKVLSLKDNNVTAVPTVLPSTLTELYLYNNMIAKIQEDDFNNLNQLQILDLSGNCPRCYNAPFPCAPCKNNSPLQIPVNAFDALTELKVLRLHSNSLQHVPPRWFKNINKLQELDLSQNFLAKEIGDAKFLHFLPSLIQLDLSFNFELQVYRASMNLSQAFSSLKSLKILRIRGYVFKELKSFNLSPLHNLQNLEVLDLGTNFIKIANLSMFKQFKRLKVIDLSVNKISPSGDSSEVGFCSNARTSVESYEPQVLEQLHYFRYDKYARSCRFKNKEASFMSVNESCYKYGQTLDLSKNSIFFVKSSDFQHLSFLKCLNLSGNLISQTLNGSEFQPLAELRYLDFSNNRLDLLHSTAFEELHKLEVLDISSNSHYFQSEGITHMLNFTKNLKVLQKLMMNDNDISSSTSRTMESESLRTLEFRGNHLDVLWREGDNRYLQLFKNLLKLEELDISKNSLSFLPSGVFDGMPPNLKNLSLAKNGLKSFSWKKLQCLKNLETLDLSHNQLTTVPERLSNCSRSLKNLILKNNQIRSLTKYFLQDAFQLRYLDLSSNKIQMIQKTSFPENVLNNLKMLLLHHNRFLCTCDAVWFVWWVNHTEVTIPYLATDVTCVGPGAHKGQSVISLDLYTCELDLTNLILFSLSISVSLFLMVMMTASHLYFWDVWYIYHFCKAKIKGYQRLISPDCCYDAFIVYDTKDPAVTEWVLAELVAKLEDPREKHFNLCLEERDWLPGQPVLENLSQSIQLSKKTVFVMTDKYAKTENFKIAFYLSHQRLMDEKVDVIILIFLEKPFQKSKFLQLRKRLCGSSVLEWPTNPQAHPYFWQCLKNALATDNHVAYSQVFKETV
Nature of the test: TLR7 inhibition reporter assay (HEK-Blue cells, secreted embryonic alkaline phosphatase reporter). The conditions noted are these: HEK-Blue cells overexpressing human TLR7, stimulated with gardiquimod 7.5 μM; read-out: TLR 7 IC50. The essentials: as §1

The next test addresses T3, human TLR8 (Homo sapiens, UniProt Q9NR97).
T3 construct: host or cells: HEK-Blue cells (HEK293-derived reporter line)
T3 sequence (Q9NR97 27-1041): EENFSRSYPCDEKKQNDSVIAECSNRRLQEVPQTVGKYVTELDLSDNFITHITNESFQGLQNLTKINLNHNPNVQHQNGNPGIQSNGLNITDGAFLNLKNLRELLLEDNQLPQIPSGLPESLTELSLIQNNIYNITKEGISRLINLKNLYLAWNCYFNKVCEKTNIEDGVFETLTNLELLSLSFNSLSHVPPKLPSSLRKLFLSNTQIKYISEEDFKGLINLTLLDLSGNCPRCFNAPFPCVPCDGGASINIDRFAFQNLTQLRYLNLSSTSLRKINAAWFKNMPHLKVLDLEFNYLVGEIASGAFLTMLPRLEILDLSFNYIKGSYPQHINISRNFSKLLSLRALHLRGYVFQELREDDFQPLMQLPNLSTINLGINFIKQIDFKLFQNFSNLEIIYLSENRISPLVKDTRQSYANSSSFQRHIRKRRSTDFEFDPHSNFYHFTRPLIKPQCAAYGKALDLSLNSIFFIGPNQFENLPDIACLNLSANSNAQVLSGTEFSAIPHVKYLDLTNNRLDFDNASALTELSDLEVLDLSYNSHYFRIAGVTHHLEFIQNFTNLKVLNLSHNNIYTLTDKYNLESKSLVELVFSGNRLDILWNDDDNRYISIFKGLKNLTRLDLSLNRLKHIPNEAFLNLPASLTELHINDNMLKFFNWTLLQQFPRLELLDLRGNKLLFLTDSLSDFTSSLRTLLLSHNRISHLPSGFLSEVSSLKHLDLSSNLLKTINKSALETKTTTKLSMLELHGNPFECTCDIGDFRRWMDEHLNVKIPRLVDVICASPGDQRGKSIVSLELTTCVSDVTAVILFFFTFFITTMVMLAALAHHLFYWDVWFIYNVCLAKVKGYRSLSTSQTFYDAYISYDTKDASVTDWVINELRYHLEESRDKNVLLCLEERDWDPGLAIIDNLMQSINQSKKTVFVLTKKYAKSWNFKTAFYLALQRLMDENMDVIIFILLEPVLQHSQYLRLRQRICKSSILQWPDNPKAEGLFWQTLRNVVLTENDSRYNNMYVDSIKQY
Nature of the test: TLR8 inhibition reporter assay (HEK-Blue cells, secreted embryonic alkaline phosphatase reporter). The conditions noted are these: HEK-Blue cells overexpressing human TLR8, stimulated with R848 15.9 μM; read-out: TLR 8 IC50. The procedure, abridged: as §1

[1] abbreviates: 22 hour incubation, reporter readout.

Regarding `Cc1cc(-c2ccc(CN3CCC(N(C)C)CC3)cc2)cc2c1nc(-c1ccc(S(C)(=O)=O)cc1)n2C` [Example 385, 1-(4-(1,4-dimethyl-2-(4-(methylsulfonyl)phenyl)-1H-benzo[d]imidazol-6-yl)benzyl)-N,N-dimethylpiperidin-4-amine], the IC50 against human TLR9 (setting [1]) was 180 nM; on human TLR9 (read-out: TLR 9 IC50) it was 179 nM; on human TLR7, 1200 nM; at human TLR8 it was 5600 nM.

Regarding `CCN(C)C1CCN(c2ccc(-c3cc(C)c4nc(-c5ccc(S(C)(=O)=O)cc5)n(C)c4c3)cc2)CC1` [Example 386, 1-(4-(1,4-dimethyl-2-(4-(methylsulfonyl)phenyl)-1H-benzo[d]imidazol-6-yl)phenyl)-N-ethyl-N-methylpiperidin-4-amine], the IC50 stood at 270 nM against human TLR9 (setting [1]), 267 nM at human TLR9 (read-out: TLR 9 IC50), 1700 nM at human TLR7 and 4400 nM at human TLR8.

Turning to `Cc1cc(-c2ccc(CN3C[C@H]4CN(C)C[C@H]4C3)c(F)c2)cc2c1nc(-c1ccc(S(C)(=O)=O)cc1)n2C` [Example 388, 6-(3-fluoro-4-((cis-5-methylhexahydropyrrolo[3,4-c]pyrrol-2(1H)-yl)methyl)phenyl)-1,4-dimethyl-2-(4-(methylsulfonyl)phenyl)-1H-benzo[d]imidazole], the IC50 was 230 nM against human TLR9 (setting [1]), 227 nM on human TLR9 (read-out: TLR 9 IC50), 400 nM at human TLR7 and 3200 nM on human TLR8.

With `CCN1CCCN(Cc2ccc(-c3cc(C)c4nc(-c5ccc(S(C)(=O)=O)cc5)n(C)c4c3)cc2F)CC1` [Example 389, 6-(4-((4-ethyl-1,4-diazepan-1-yl)methyl)-3-fluorophenyl)-1,4-dimethyl-2-(4-(methylsulfonyl)phenyl)-1H-benzo[d]imidazole], the IC50 worked out at 330 nM against human TLR9 (setting [1]), 327 nM at human TLR9 (read-out: TLR 9 IC50), 300 nM on human TLR7 and 1800 nM on human TLR8.

On to `Cc1cc(-c2ccc(CN3CCC(N(C)C)CC3)c(F)c2)cc2c1nc(-c1ccc(S(C)(=O)=O)cc1)n2C` [Example 390, 1-(4-(1,4-dimethyl-2-(4-(methylsulfonyl)phenyl)-1H-benzo[d]imidazol-6-yl)-2-fluorobenzyl)-N,N-dimethylpiperidin-4-amine], for which the IC50 at human TLR9 (setting [1]) came to 91 nM; at human TLR9 (read-out: TLR 9 IC50), 91 nM; on human TLR7, 4200 nM; at human TLR8 it was 10200 nM.

For `Cc1cc(-c2cc(F)c(CN3CCC(N4CCCC4)CC3)c(F)c2)cc2c1nc(-c1ccc(S(C)(=O)=O)cc1)n2C` [Example 391, 6-(3,5-difluoro-4-((4-(pyrrolidin-1-yl)piperidin-1-yl)methyl)phenyl)-1,4-dimethyl-2-(4-(methylsulfonyl)phenyl)-1H-benzo[d]imidazole], the IC50 at human TLR9 (setting [1]) was found to be 180 nM; on human TLR9 (read-out: TLR 9 IC50), 178 nM; at human TLR7, 2100 nM; at human TLR8, 11700 nM.

Regarding `Cc1cc(-c2cc(F)c(CN3CCC(N(C)C)CC3)c(F)c2)cc2c1nc(-c1ccc(S(C)(=O)=O)cc1)n2C` [Example 392, 1-(4-(1,4-dimethyl-2-(4-(methylsulfonyl)phenyl)-1H-benzo[d]imidazol-6-yl)-2,6-difluorobenzyl)-N,N-dimethylpiperidin-4-amine], the IC50 on human TLR9 (setting [1]) was found to be 470 nM; at human TLR9 (read-out: TLR 9 IC50) it was 466 nM; on human TLR7, 10200 nM; at human TLR8, 6400 nM.

Consider `Cc1cc(-c2ccc(CN3CCC(N(C)C4CC4)CC3)cc2)cc2c1nc(-c1ccc(S(C)(=O)=O)cc1)n2C` [Example 393, N-cyclopropyl-1-(4-(1,4-dimethyl-2-(4-(methylsulfonyl)phenyl)-1H-benzo[d]imidazol-6-yl)benzyl)-N-methylpiperidin-4-amine], for which the IC50 was 330 nM at human TLR9 (setting [1]), 334 nM on human TLR9 (read-out: TLR 9 IC50), greater than 50000 nM on human TLR7 and 9500 nM on human TLR8.

`Cc1cc(-c2ccc(CN3CCC(N(C)C4CC4)CC3)c(F)c2)cc2c1nc(-c1ccc(S(C)(=O)=O)cc1)n2C` [Example 394, N-cyclopropyl-1-(4-(1,4-dimethyl-2-(4-(methylsulfonyl)phenyl)-1H-benzo[d]imidazol-6-yl)-2-fluorobenzyl)-N-methylpiperidin-4-amine]: the IC50 was 560 nM against human TLR9 (setting [1]), 563 nM on human TLR9 (read-out: TLR 9 IC50), greater than 50000 nM on human TLR7 and 5700 nM on human TLR8.

In the case of `Cc1cc(-c2ccc(CN3CC4(C3)CN(C(C)C)C4)cc2)cc2c1nc(-c1ccc(S(C)(=O)=O)cc1)n2C` [Example 399, 6-(4-((6-isopropyl-2,6-diazaspiro[3.3]heptan-2-yl)methyl)phenyl)-1,4-dimethyl-2-(4-(methylsulfonyl)phenyl)-1H-benzo[d]imidazole], the 50% inhibitory concentration (IC50) on human TLR9 (setting [1]) was 97 nM; at human TLR9 (read-out: TLR 9 IC50), 97 nM; at human TLR7, 1000 nM; on human TLR8 it was 2700 nM.

The values are drawn from patent US12492188B2, “1H-benzo[D]imidazole derivatives as TLR9 inhibitors for the treatment of fibrosis” (BRISTOL-MYERS SQUIBB COMPANY, priority 2020, dated 2025).
